Measurements as given in patent publication US8937062B2, “Compositions and methods for treating, reducing, ameliorating, or preventing infections caused by antibacterial drug-resistant bacteria” (Bausch & Lomb Incorporated, priority 2007, dated 2015).
≈ marks a conversion by molar mass, not a printed value. Where two headings read alike, the source gives them in different places.

Legend:
[1] = test system: Methicillin-Resistant S. aureus Isolates; experiment: In vitro anti-bacterial activity, fourth test, Table 5; assay type: cell-based, Staphylococcus aureus; details: Staphylococcus aureus, read-out: MIC90
Protocol: In a fourth test, the anti-bacterial activity of the compound having Formula IV was tested against some methicillin-resistant S. aureus bacteria strains and compared to the anti-bacterial activity of three commercially available antibiotics: nadifloxacin (“NDFX”), ofloxacin (“OFLX”), and sparfloxacin (“SPFX”).

[2] = test system: APC-resistant Haemophilus influenza.; experiment: MIC90, agar plate dilution method (NCCLS), Table 2; assay type: cell-based; details: for MIC90 Range: APC-resistant Haemophilus influenza., 10 isolates; for MIC90: Haemophilus
Protocol: (§1) The MIC90 values for this test were determined by the agar plate dilution method according to the National Committee for Clinical Laboratory Standards (“NCCLS”).

[3] = test system: GM-resistant P. aeruginosa; experiment: MIC90, agar plate dilution method (NCCLS), Table 2; assay type: cell-based; details: 10 isolates; for MIC90: Pseudomonas aeruginosa
Protocol: as §1

GM-resistant S. aureus = experiment: MIC90, agar plate dilution method (NCCLS), Table 2; assay type: cell-based; details: 10 isolates; for MIC90: Staphylococcus aureus
Protocol: as §1

[4] = test system: OFLX-resistant Enterobacteriaceae; experiment: MIC90, agar plate dilution method (NCCLS), Table 2; assay type: cell-based
Protocol: as §1

OFLX-resistant S. aureus = experiment: MIC90, agar plate dilution method (NCCLS), Table 2; assay type: cell-based; details: 10 isolates; for MIC90: Staphylococcus aureus
Protocol: as §1

[5] = test system: PCG-resistant S. pneumoniae; experiment: MIC90, agar plate dilution method (NCCLS), Table 2; assay type: cell-based; details: 10 isolates; for MIC90: Streptococcus pneumoniae
Protocol: as §1

[6] = test system: Ofloxacin-resistant Enterobacteriaceae; experiment: organism not typed; assay type: cell-based
Excerpt: (§2) As disclosed above, most of these bacteria strains are also relevant to infections of the ear and upper respiratory tract.

[7] = test system: Gentamicin-resistant Pseudomonas aeruginosa; experiment: In vitro anti-bacterial activity, resistant clinical isolates, fifth test, Table 6; assay type: cell-based; details: read-out: MIC90
Excerpt: as §2

[8] = test system: Gentamicin-resistant Staphylococcus aureus; experiment: as above; assay type: cell-based; details: read-out: MIC90
Excerpt: as §2

[9] = test system: Ofloxacin-resistant Staphylococcus aureus; experiment: as above; assay type: cell-based; details: read-out: MIC90
Excerpt: as §2

[10] = test system: Penicillin-resistant Streptococcus pneumoniae; experiment: as above; assay type: cell-based; details: read-out: MIC90
Excerpt: as §2

[11] = test system: E. cloacae, extended-spectrum β-lactamase positive; experiment: MIC90, broth microdilution (CLSI M7-A7), Table 4; assay type: cell-based; details: Enterobacter cloacae, 15 isolates
Protocol: (§3) The MIC90 values were determined according to the broth microdilution method outlined in the Clinical and Laboratory Standards Institute Approved Standard M7-A7 (2006).

[12] = test system: H. influenzae, β-lactamase positive, ampicillin-resistant; experiment: MIC90, broth microdilution (CLSI M7-A7), Table 4; assay type: cell-based; details: 25 isolates; for MIC90: Haemophilus influenzae
Protocol: as §3

[13] = test system: H. influenzae, β-lactamase positive; experiment: MIC90, broth microdilution (CLSI M7-A7), Table 4; assay type: cell-based; details: 53 isolates; for MIC90: Haemophilus influenzae
Protocol: as §3

[14] = test system: S. aureus, methicillin- and ciprofloxacin-resistant; experiment: MIC90, broth microdilution (CLSI M7-A7), Table 4; assay type: cell-based; details: Staphylococcus aureus, 24 isolates
Protocol: as §3

[15] = test system: S. aureus, methicillin-resistant and ciprofloxacin-sensitive; experiment: MIC90, broth microdilution (CLSI M7-A7), Table 4; assay type: cell-based; details: 25 isolates; for MIC90: Staphylococcus aureus
Protocol: as §3

[16] = test system: S. aureus, vancomycin-intermediately resistant; experiment: MIC90, broth microdilution (CLSI M7-A7), Table 4; assay type: cell-based; details: Staphylococcus aureus, 23 isolates
Protocol: as §3

[17] = test system: S. aureus, vancomycin-resistant; experiment: MIC90, broth microdilution (CLSI M7-A7), Table 4; assay type: cell-based; details: Staphylococcus aureus, 3 isolates, read-out: MIC90 Geometric Mean
Protocol: as §3

[18] = test system: S. epidermidis, methicillin-resistant; experiment: MIC90, broth microdilution (CLSI M7-A7), Table 4; assay type: cell-based; details: Staphylococcus epidermidis, 64 isolates
Protocol: as §3

[19] = test system: S. pneumoniae, levofloxacin-resistant; experiment: MIC90, broth microdilution (CLSI M7-A7), Table 4; assay type: cell-based; details: Streptococcus pneumoniae, 25 isolates
Protocol: as §3

[20] = test system: S. pneumoniae, penicillin-intermediately resistant; experiment: MIC90, broth microdilution (CLSI M7-A7), Table 4; assay type: cell-based; details: Streptococcus pneumoniae, 26 isolates
Protocol: as §3

[21] = test system: S. pneumoniae, penicillin-resistant; experiment: MIC90, broth microdilution (CLSI M7-A7), Table 4; assay type: cell-based; details: 26 isolates; for MIC90: Streptococcus pneumoniae
Protocol: as §3

[22] = test system: S. pneumoniae Clinical Isolates; experiment: In vitro activity against clinical isolates, sixth test, Table 7; assay type: cell-based; details: 78 isolates

`C[C@@H]1CN(c2c(F)c(N)c3c(=O)c(C(=O)O)cn(C4CC4)c3c2F)C[C@H](C)N1` [SPFX, sparfloxacin] gave an MIC90 ([1]; ATCC33591, Staphylococcus aureus (ATCC 33591)) of 0.024 µg/mL (≈ 0.0612 µM), an MIC90 ([1]; ATCC33592, Staphylococcus aureus (ATCC 33592)) of 0.1 µg/mL (≈ 0.255 µM) and an MIC90 ([1]; ATCC33593, Staphylococcus aureus (ATCC 33593)) of 0.024 µg/mL (≈ 0.0612 µM). For the same compound, the MIC90 ([1]; Staphylococcus aureus (No. 395)) was 0.05 µg/mL (≈ 0.127 µM), the MIC90 ([1]; Staphylococcus aureus (No. 415)) was 0.2 µg/mL (≈ 0.51 µM) and the MIC90 ([1]; Staphylococcus aureus (No. 419)) was 1.56 µg/mL (≈ 3.98 µM). For the same compound, the MIC90 ([1]; Staphylococcus aureus (No. 420)) was 0.78 µg/mL (≈ 1.99 µM) and the MIC90 ([1]; Staphylococcus aureus (No. 421)) was 0.39 µg/mL (≈ 0.994 µM).

For `O=C1CCN(c2c(F)cc3c(=O)c(C(=O)O)cn(C4CC4)c3c2Cl)CCN1` [VI], the “MIC90 Range” value [2] was “≦0.06 μg/ml”, the MIC90 ([2]; read-out: MIC90 Geometric Mean) was at most 0.06 µg/mL and the MIC90 ([2]; read-out: MIC90 Value) was at most 0.06 µg/mL. For the same compound, the “MIC90 Range” value [3] was 0.5 to 64 µg/mL, the MIC90 ([3]; read-out: MIC90 Geometric Mean) was 6.96 µg/mL (≈ 17.7 µM) and the MIC90 ([3]; read-out: MIC90 Value) was 32 µg/mL (≈ 81.3 µM). The “MIC90 Range” value (GM-resistant S. aureus) was “≦0.006-4 μg/ml”, the MIC90 (GM-resistant S. aureus; read-out: MIC90 Geometric Mean) was 0.43 µg/mL (≈ 1.09 µM) and the MIC90 (GM-resistant S. aureus; read-out: MIC90 Value) was 4 µg/mL (≈ 10.2 µM). The MIC90 ([4]; read-out: MIC90 Geometric Mean) was 32 µg/mL (≈ 81.3 µM), the MIC90 ([4]; read-out: MIC90 Value) was 32 µg/mL (≈ 81.3 µM) and the “MIC90 Range” value (OFLX-resistant S. aureus) was 0.25 to 8 µg/mL. For the same compound, the MIC90 (OFLX-resistant S. aureus; read-out: MIC90 Geometric Mean) was 1.52 µg/mL (≈ 3.86 µM), the MIC90 (OFLX-resistant S. aureus; read-out: MIC90 Value) was 4 µg/mL (≈ 10.2 µM) and the “MIC90 Range” value [5] was 0.13 to 0.25 µg/mL. The MIC90 ([5]; read-out: MIC90 Geometric Mean) was 0.14 µg/mL (≈ 0.356 µM) and the MIC90 ([5]; read-out: MIC90 Value) was 0.13 µg/mL (≈ 0.33 µM).

In the case of `CCn1cc(C(=O)O)c(=O)c2cc(F)c(N3CCNCC3)cc21` [NFLX, norfloxacin], the “MIC90 Range” value [2] is reported as “≦0.06 μg/ml”, the MIC90 ([2]; read-out: MIC90 Geometric Mean) is reported as at most 0.06 µg/mL and the MIC90 ([2]; read-out: MIC90 Value) is reported as at most 0.06 µg/mL. For the same compound, the “MIC90 Range” value [3] was 0.5 to 128 µg/mL, the MIC90 ([3]; read-out: MIC90 Geometric Mean) was 5.66 µg/mL (≈ 17.7 µM) and the MIC90 ([3]; read-out: MIC90 Value) was 128 µg/mL (≈ 401 µM). For the same compound, the MIC90 (GM-resistant S. aureus; read-out: MIC90 Geometric Mean) was 48.5 µg/mL (≈ 152 µM), the MIC90 (GM-resistant S. aureus; read-out: MIC90 Value) was over 128 µg/mL and the “MIC90 Range” value ([4]; OFLX-resistant Enterobacteriaceae, 10 isolates) was 16 to 128 µg/mL. For the same compound, the MIC90 ([4]; read-out: MIC90 Geometric Mean) was 48.5 µg/mL (≈ 152 µM), the MIC90 ([4]; read-out: MIC90 Value) was 128 µg/mL (≈ 401 µM) and the MIC90 (OFLX-resistant S. aureus; read-out: MIC90 Geometric Mean) was 194 µg/mL (≈ 608 µM). The MIC90 (OFLX-resistant S. aureus; read-out: MIC90 Value) was over 128 µg/mL, the “MIC90 Range” value [5] was 2 to 8 µg/mL and the MIC90 ([5]; read-out: MIC90 Geometric Mean) was 4.29 µg/mL (≈ 13.4 µM). It also gave an MIC90 ([5]; read-out: MIC90 Value) of 8 µg/mL (≈ 25.1 µM), an MIC90 [6] of 128 µg/mL (≈ 401 µM) and an MIC90 [7] of 128 µg/mL (≈ 401 µM). The MIC90 [8] was 128 µg/mL (≈ 401 µM), the MIC90 [9] was over 128 µg/mL and the MIC90 [10] was 8 µg/mL (≈ 25.1 µM).

`COc1c(N2C[C@@H]3CCCN[C@@H]3C2)c(F)cc2c(=O)c(C(=O)O)cn(C3CC3)c12` [MOFX, moxifloxacin] was tested, and the MIC90 ([11]; read-out: MIC90 Geometric Mean) was 2.75 µg/mL (≈ 6.85 µM), the MIC90 ([11]; read-out: MIC90 Value) was over 8 µg/mL and the “MIC90 Range” value [12] was 0.015 to 0.12 µg/mL. The MIC90 ([12]; read-out: MIC90 Geometric Mean) was 0.047 µg/mL (≈ 0.117 µM), the MIC90 ([12]; read-out: MIC90 Value) was 0.12 µg/mL (≈ 0.299 µM) and the “MIC90 Range” value [13] was 0.015 to 0.06 µg/mL. It also gave an MIC90 ([13]; read-out: MIC90 Geometric Mean) of 0.03 µg/mL (≈ 0.0747 µM), an MIC90 ([13]; read-out: MIC90 Value) of 0.06 µg/mL (≈ 0.149 µM) and an MIC90 ([14]; read-out: MIC90 Geometric Mean) of 6.92 µg/mL (≈ 17.2 µM). The MIC90 ([14]; read-out: MIC90 Value) was over 8 µg/mL, the “MIC90 Range” value [15] was 0.015 to 8 µg/mL and the MIC90 ([15]; read-out: MIC90 Geometric Mean) was 0.057 µg/mL (≈ 0.142 µM). The MIC90 ([15]; read-out: MIC90 Value) was 0.12 µg/mL (≈ 0.299 µM), the MIC90 ([16]; read-out: MIC90 Geometric Mean) was 2.69 µg/mL (≈ 6.7 µM) and the MIC90 ([16]; read-out: MIC90 Value) was 8 µg/mL (≈ 19.9 µM). It also gave an MIC90 [17] of 6.35 µg/mL (≈ 15.8 µM), an MIC90 ([18]; read-out: MIC90 Geometric Mean) of 1.12 µg/mL (≈ 2.8 µM) and an MIC90 ([18]; read-out: MIC90 Value) of over 8 µg/mL. For the same compound, the MIC90 ([19]; read-out: MIC90 Geometric Mean) was 3.68 µg/mL (≈ 9.17 µM), the MIC90 ([19]; read-out: MIC90 Value) was over 8 µg/mL and the MIC90 ([20]; read-out: MIC90 Geometric Mean) was 0.209 µg/mL (≈ 0.521 µM). For the same compound, the MIC90 ([20]; read-out: MIC90 Value) was 0.25 µg/mL (≈ 0.623 µM), the “MIC90 Range” value [21] was 0.06 to 0.25 µg/mL and the MIC90 ([21]; read-out: MIC90 Geometric Mean) was 0.217 µg/mL (≈ 0.541 µM). The MIC90 ([21]; read-out: MIC90 Value) was 0.25 µg/mL (≈ 0.623 µM), the “MIC90 Range” value [22] was 0.06 to 0.25 µg/mL and the MIC90 ([22]; Streptococcus pneumoniae) was 0.12 µg/mL (≈ 0.299 µM).
